Patent US4127687A, “Prevention of fouling of marine structures such as boat hulls” (Rohm and Haas Company, priority 1976, dated 1978)
Converted amounts (≈) assume the structure as drawn. “And” between values parts separate entries of the source, which are not always exact repeats. Equal values may be shown once.

Experiments:
barnacle = experiment: Membrane Diffusion Raft Trials, barnacle control; assay type: in vivo, barnacles; conditions: membrane test, average 15 to 16 weeks of immersion
From the text: (§1) 1). FIELD TESTS: - Membrane Diffusion Raft Trials
(§2) A specially constructed raft provides three types
(§3) a). Waterline Well illuminated, aerated
(§4) b). Flats Poorly illuminated deeper
(§5) A known quantity of the test compound is placed into a cylindrical plastic container whose open end is then covered with a membrane of known porosity; the complete unit is attached to the appropriate raft panel so that the poison can freely diffuse into the free water layer around it. Regular inspections, recording time and quantity of settlement, allow a life history of each membrane trial to be constructed. Each raft panel contains 35 compounds to be evaluated together with 4 standard poisons and 1 non-toxic membrane for control.
(§6) The behavior on the raft can thus be compared with that of the standard poisons and the non-toxic control. At normal loading a membrane over the standard poisons would be free from macro-fouling after six months immersion. Compounds showing selective effects against restricted groups of fouling organisms also show up by membrane testing.
(§7) After the completion of membrane tests the contents of all containers are checked visually for poison loss. An empty container indicates an unacceptably high solubility for long term effectiveness; where the poison loss is low the compound is tested in one of two ways depending on its performance against fouling.
(§8) In the membrane tests, the results of approximately 140 compounds evaluated appear in Table 1. The symbols "0" means no detactable effect, the symbol "+" indicates the compound is active against the given fouling organism, and the symbol "++" means that the compound appears to be effective over at least about a four month period for essentially preventing fouling activity by the given organism. In the Table, "weed" designates a grass-like algal growth common in sea water.
(§9) Membrane Test results are of an average 15 to 16 weeks of immersion,
(§10) ^a 0 = none, + = some, + + = effective.
^f The 1975 Spring settlement of barnacles was very meager and the […]

weed = experiment: Membrane Diffusion Raft Trials, weed control; assay type: in vivo, grass-like algal growth common in sea water; conditions: membrane test, average 15 to 16 weeks of immersion
From the text: as §1, §2, §3, §4, §5, §6, §7, §8, §9, §10

[1] = Water solubility by UV spectrophotometric method; assay type: physicochemical; conditions: for solubility: water, saturated solution, Table 1, read-out: Solubility by UV method
Experimental: The water solubilities of several isothiazolones were determined by UV spectrophotometric measurements of saturated aqueous solution of each compound in comparison with measurement of solutions of carefully prepared known concentration as outlined in the following example.
DETERMINATION OF SOLUBILITY OF 5-CHLORO-2-(4-FLUOROPHENYL)-4-METHYL-3-ISOTHIAZOLONE OF EXAMPLE 115
A sample of 5-chloro-2-(4-fluorophenyl)-4-methyl-3-isothiazolone (0.0406 g., 1.67 × 10^-4 mole) was dissolved in 50 ml. of methanol. A 5 ml. aliquot of the solution was diluted to 1000 ml. with deionized water, providing a solution of 1.67 × 10^-5 moles/liter concentration. An ultraviolet spectrum of this solution was run using a 10 cm. cell. The absorbance (As) at the wave length of maximum absorption (279 nm.) was 1.208. The molar absorptivity, AM, was calculated from the relationship
where b and c are path length or cell thickness and concentration respectively. Thus, AM was [formula]
Another sample of the compound (0.3-0.5 g.) was stirred vigorously in 40 ml. of deionized water for approximately 72 hrs. to give a saturated solution. The mixture was filtered through very fine filter paper (Whatman No. 50) to remove all suspended solid. Small portions of the filtrate were diluted with water by various factors until an approximately mid-scale absorbance was obtained upon running an ultraviolet spectrum. Such an absorbance was obtained at a dilution of 10. The absorbance was 0.975 in a 10 cm. cell. Using the value for AM obtained earlier, in the equation

[2] = Amount of toxicant remaining in the test container after membrane diffusion raft tests; assay type: physicochemical; parameters: key: 0: empty or trace; +: some; + +: ample; conditions: after completion of membrane diffusion raft tests
From the text: as §5, §7
^b Amount of toxicants remaining in the test container after the
completion of the membrane diffusion raft tests: 0 = empty or trace, + =

CCCCCCn1sc(Cl)c(Br)c1=O [Example 87]
Barnacle Control (barnacle): + +
Weed Control (weed): + +
solubility [1]: 85 µg/mL (≈ 285 µM)
Contents at the end of test (amount of toxicants remaining in the test container) [2]: 0

CCCCCCC(C)n1sc(Cl)cc1=O (stereo not drawn) [Example 18]
solubility [1]: 175 µg/mL (≈ 706 µM)

Cc1c(Cl)sn(-c2ccc(C(F)(F)F)cc2)c1=O [Example 130]
solubility [1]: 7 µg/mL (≈ 23.8 µM)

CCC(C)CC(CC)n1sc(Cl)cc1=O (stereo not drawn) [Example 20]
solubility [1]: 300 µg/mL (≈ 1210 µM)

CCCCCCC(C)n1sc(Cl)c(Cl)c1=O (stereo not drawn) [Example 60]
solubility [1]: 50 µg/mL (≈ 177 µM)

Cc1c(Cl)sn(C2CCCCC2)c1=O [Example 107]
Barnacle Control (barnacle): +
Weed Control (weed): 0
solubility [1]: 350 µg/mL (≈ 1510 µM)
Contents at the end of test (amount of toxicants remaining in the test container) [2]: +

O=c1cc(Cl)sn1-c1ccccc1 [Example 33]
Barnacle Control (barnacle): +
Weed Control (weed): + +
solubility [1]: 180 µg/mL (≈ 850 µM)
Contents at the end of test (amount of toxicants remaining in the test container) [2]: +

Cc1c(Cl)sn(-c2ccc(F)cc2)c1=O [Example 115, 5-chloro-2-(4-fluorophenyl)-4-methyl-3-isothiazolone]
solubility thermodynamic at 72 h ([1]; deionized water, stirred approximately 72 hrs., UV, read-out: concentration of the saturated solution): 135 µM and 32.8 µg/mL
solubility at 72 h ([1]; deionized water, stirred approximately 72 hrs., UV, read-out: solubility of this compound): 33 µg/mL (≈ 135 µM)
solubility [1]: 35 µg/mL (≈ 144 µM)

CCCCn1sc(Cl)c(Br)c1=O [Example 86]
Barnacle Control (barnacle): 0
Weed Control (weed): + +
solubility [1]: 1170 µg/mL (≈ 4320 µM)
Contents at the end of test (amount of toxicants remaining in the test container) [2]: 0

Cc1c(Cl)sn(-c2cc(Cl)cc(Cl)c2)c1=O [Example 136]
solubility [1]: 3 µg/mL (≈ 10.2 µM)

CCCCCCCCn1sc(Br)c(Br)c1=O [Example 95]
Barnacle Control (barnacle): 0
Weed Control (weed): + +
solubility [1]: 1.7 µg/mL (≈ 4.58 µM)
Contents at the end of test (amount of toxicants remaining in the test container) [2]: 0

Cc1c(Cl)sn(-c2ccc(Cl)c(Cl)c2)c1=O [Example 134]
Barnacle Control (barnacle): 0
Weed Control (weed): 0
solubility [1]: 3.5 µg/mL (≈ 11.9 µM)
Contents at the end of test (amount of toxicants remaining in the test container) [2]: + +

Cc1c(Cl)sn(-c2cccc(C(F)(F)F)c2)c1=O [Example 129]
solubility [1]: 12 µg/mL (≈ 40.9 µM)

Cc1ccc(-n2sc(Cl)c(C)c2=O)cc1 [Example 120]
solubility [1]: 60 µg/mL (≈ 250 µM)

CCCCCCn1sc(Cl)cc1=O [Example 15]
Barnacle Control (barnacle): 0
Weed Control (weed): 0
solubility [1]: 900 µg/mL (≈ 4100 µM)
Contents at the end of test (amount of toxicants remaining in the test container) [2]: 0

O=c1cc(Cl)sn1CCc1ccccc1 [Example 29]
Barnacle Control (barnacle): 0
Weed Control (weed): + +
solubility [1]: 240 µg/mL (≈ 1000 µM)
Contents at the end of test (amount of toxicants remaining in the test container) [2]: 0

CC1CC(n2sc(Cl)c(Cl)c2=O)CC(C)(C)C1 (stereo not drawn) [Example 68]
solubility [1]: 45 µg/mL (≈ 153 µM)

Cc1c(Cl)sn(Cc2ccccc2)c1=O [Example 109]
Barnacle Control (barnacle): +
Weed Control (weed): + +
solubility [1]: 100 µg/mL (≈ 417 µM)
Contents at the end of test (amount of toxicants remaining in the test container) [2]: 0

Cc1c(Cl)sn(-c2ccccc2Cl)c1=O [Example 112]
solubility [1]: 23 µg/mL (≈ 88.4 µM)

O=c1c(Cl)c(Cl)sn1-c1ccc([N+](=O)[O-])cc1 [Example 82]
Barnacle Control (barnacle): 0
Weed Control (weed): 0
Contents at the end of test (amount of toxicants remaining in the test container) [2]: + +

O=c1c(Br)c(Cl)sn1CCc1ccc(Cl)cc1 [Example 92]
Barnacle Control (barnacle): 0
Weed Control (weed): 0
Contents at the end of test (amount of toxicants remaining in the test container) [2]: +

CC(C)CCCC(C)n1sc(Cl)cc1=O (stereo not drawn) [Example 19]
solubility [1]: 190 µg/mL (≈ 767 µM)

O=c1ccsn1-c1ccccc1 [Example 11]
Barnacle Control (barnacle): 0
Weed Control (weed): 0
Contents at the end of test (amount of toxicants remaining in the test container) [2]: 0

CC(c1ccccc1)n1sc(Cl)cc1=O (stereo not drawn) [Example 30]
solubility [1]: 420 µg/mL (≈ 1750 µM)

CCC(C)CC(CC)n1sc(Cl)c(Cl)c1=O (stereo not drawn) [Example 62]
solubility [1]: 85 µg/mL (≈ 301 µM)

O=c1c(Cl)csn1Cc1ccc(Cl)cc1 [Example 46]
Barnacle Control (barnacle): 0
Weed Control (weed): +
Contents at the end of test (amount of toxicants remaining in the test container) [2]: + +

CCCCCCCCCCCCn1scc(Br)c1=O [Example 50]
Barnacle Control (barnacle): +
Weed Control (weed): 0
Contents at the end of test (amount of toxicants remaining in the test container) [2]: + +

O=c1cc(Cl)sn1-c1ccc(Cl)c(C(F)(F)F)c1 [Example 40]
Barnacle Control (barnacle): 0
Weed Control (weed): +
Contents at the end of test (amount of toxicants remaining in the test container) [2]: + +

CCCCC(CC)Cn1sc(Cl)c(C)c1=O (stereo not drawn) [Example 103]
solubility [1]: 102 µg/mL (≈ 390 µM)

CC1CC(n2sc(Cl)cc2=O)CC(C)(C)C1 (stereo not drawn) [Example 28]
solubility [1]: 185 µg/mL (≈ 712 µM)

CCCCCCCCCCCCCCCCCCn1sccc1=O [Example 8]
Barnacle Control (barnacle): 0
Weed Control (weed): 0
Contents at the end of test (amount of toxicants remaining in the test container) [2]: + +

O=c1c(Cl)c(Cl)sn1-c1cccc(Cl)c1 [Example 76]
Barnacle Control (barnacle): 0
Weed Control (weed): +
Contents at the end of test (amount of toxicants remaining in the test container) [2]: + +

O=c1c(Br)c(Cl)sn1C1CCCCC1 [Example 90]
solubility [1]: 45 µg/mL (≈ 152 µM)

Cn1sc(Br)c(Br)c1=O [Example 94]
Barnacle Control (barnacle): 0
Weed Control (weed): +
Contents at the end of test (amount of toxicants remaining in the test container) [2]: 0

CC(C)(C)CC(C)(C)n1sc(Cl)cc1=O [Example 21]
solubility [1]: 200 µg/mL (≈ 807 µM)

O=c1cc(Cl)sn1Cc1ccccc1 [Example 31]
solubility [1]: 390 µg/mL (≈ 1730 µM)

Cc1csn(-c2ccc(Cl)c(Cl)c2)c1=O [Example 140]
Barnacle Control (barnacle): 0
Weed Control (weed): 0
Contents at the end of test (amount of toxicants remaining in the test container) [2]: + +

Cc1c(Cl)sn(-c2ccc(Cl)cc2Cl)c1=O [Example 135]
solubility [1]: 4 µg/mL (≈ 13.6 µM)

Cc1c(Cl)sn(-c2ccc(Br)cc2)c1=O [Example 116]
solubility [1]: 7 µg/mL (≈ 23 µM)

CC(c1ccccc1)n1sc(Cl)c(Cl)c1=O (stereo not drawn) [Example 70]
solubility [1]: 50 µg/mL (≈ 182 µM)

O=c1c(Br)csn1-c1ccc(Cl)cc1 [Example 54]
Barnacle Control (barnacle): 0
Weed Control (weed): 0
Contents at the end of test (amount of toxicants remaining in the test container) [2]: + +

CC(C)CCCC(C)n1sc(Cl)c(Cl)c1=O (stereo not drawn) [Example 61]
solubility [1]: 55 µg/mL (≈ 195 µM)

CCCCCCCCCCCCCCCCn1sc(Cl)cc1=O [Example 25]
Barnacle Control (barnacle): 0
Weed Control (weed): 0
Contents at the end of test (amount of toxicants remaining in the test container) [2]: + +
